Some test systems named below: A549 NSCLC; HCT-116 colon; HT29 colon; KM12 colon; LXFL 529 NSCLC; M14 melanoma; NCI-H522 lung; OVCAR-4 ovarian; OVCAR-8 ovarian; RXF 393 renal; SF-295 CNS; SK-MEL-5 melanoma; SN12C renal; SNB-75 CNS; SW-620 colon; HCT-15 colon; RPMI-8226 leukemia; DU-145 prostate; PC-3 prostate; T-47D breast.
Holding throughout (test): NCI tumour cell line growth inhibition, 48 h

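How tested: cells in 96-well plates exposed to compound for 48 hours at five concentrations. TGI: concentration producing complete growth inhibition.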

The results in this text go back to PubChem BioAssay (NCI).

Turning to `O=C(COC(=O)c1cccc2c(=O)c3ccccc3[nH]c12)Nc1ccc(Cl)cc1`, the TGI in the test on A549 NSCLC, with HCT-116 colon, in the test with HT29 colon, in the test with KM12 colon, with LXFL 529 NSCLC and with M14 melanoma was greater than 100 µM each time. In addition, the TGI was greater than 100 µM with NCI-H522 lung; greater than 100 µM in the test with OVCAR-4 ovarian; greater than 100 µM in the test on OVCAR-8 ovarian; 66 µM with RXF 393 renal; greater than 100 µM in the test with SF-295 CNS; greater than 100 µM in the test on SK-MEL-5 melanoma. The TGI is greater than 100 µM in the test with SN12C renal, 78.6 µM in the test with SNB-75 CNS and greater than 100 µM in the test on SW-620 colon.
Regarding `COc1ccc(NC(=O)c2oc3cc(O)ccc3c(=O)c2C)c([N+](=O)[O-])c1`, the TGI in the test with A549 NSCLC, in the test on HCT-116 colon, with HCT-15 colon, in the test on HT29 colon, in the test with KM12 colon and in the test with LXFL 529 NSCLC was greater than 100 µM throughout. Also, the TGI in the test with M14 melanoma, in the test on NCI-H522 lung, in the test on OVCAR-4 ovarian, in the test with OVCAR-8 ovarian, in the test with RXF 393 renal and in the test on SF-295 CNS was greater than 100 µM throughout. The TGI in the test with SK-MEL-5 melanoma, in the test on SN12C renal, in the test on SNB-75 CNS and with SW-620 colon was greater than 100 µM throughout.
For `COC(=O)C(=O)C(C(C)=O)C(=O)NCc1ccccc1` (stereo not given), the TGI in the test on A549 NSCLC, in the test on HCT-116 colon, in the test with HCT-15 colon, with HT29 colon, in the test with KM12 colon and with LXFL 529 NSCLC was greater than 100 µM in each case. Further, the TGI in the test on M14 melanoma, in the test on NCI-H522 lung, in the test on OVCAR-4 ovarian, with OVCAR-8 ovarian, with RPMI-8226 leukemia and in the test on RXF 393 renal was greater than 100 µM in each case. Besides, the TGI is greater than 100 µM in the test on SF-295 CNS; greater than 100 µM with SK-MEL-5 melanoma; greater than 100 µM in the test on SN12C renal; greater than 100 µM in the test on SNB-75 CNS; 19 µM with SW-620 colon.
Take `Cc1cc(N(CCC#N)CCC#N)ccc1/C=C(\NC(=O)/C=C/c1ccccc1)C(=O)Nc1ccc(Cl)cc1`: the TGI is greater than 100 µM in the test with A549 NSCLC; greater than 100 µM with DU-145 prostate; greater than 100 µM in the test on HCT-116 colon; greater than 100 µM in the test with HCT-15 colon; greater than 100 µM with HT29 colon; greater than 94 µM with KM12 colon. Besides, the TGI in the test on LXFL 529 NSCLC, in the test on M14 melanoma, in the test with NCI-H522 lung, in the test with OVCAR-4 ovarian, with OVCAR-8 ovarian and with PC-3 prostate was greater than 100 µM in each case. In addition, the TGI was greater than 100 µM in the test on RPMI-8226 leukemia; greater than 100 µM in the test with RXF 393 renal; greater than 100 µM in the test with SF-295 CNS; 5.95 µM with SK-MEL-5 melanoma; greater than 100 µM with SN12C renal; greater than 100 µM in the test on SNB-75 CNS. The TGI in the test on SW-620 colon and with T-47D breast was greater than 100 µM each time.
As to `CCCCCN(CCCCC)C(=O)[C@H](CCC(=O)O)NC(=O)c1cc2ccccc2[nH]1`, the TGI in the test with A549 NSCLC is greater than 100 µM; in the test with HCT-116 colon it was 92.5 µM; in the test on HCT-15 colon, greater than 100 µM; in the test on HT29 colon, greater than 100 µM; in the test with KM12 colon, greater than 100 µM; in the test on LXFL 529 NSCLC, greater than 100 µM. Also, the TGI in the test on M14 melanoma is greater than 100 µM; in the test with NCI-H522 lung, 67.7 µM; with OVCAR-4 ovarian, greater than 100 µM; in the test on OVCAR-8 ovarian, greater than 100 µM; in the test with RPMI-8226 leukemia, 54.8 µM; in the test with RXF 393 renal, 93.5 µM. Besides, the TGI was greater than 100 µM in the test on SF-295 CNS, greater than 100 µM in the test on SN12C renal, 98.4 µM in the test with SNB-75 CNS and greater than 100 µM in the test on SW-620 colon.
For `O=C(Nc1ccc([N+](=O)[O-])cc1[N+](=O)[O-])C(=O)C(C(=O)c1ccc(Cl)c(Cl)c1)C1OC(=O)c2ccccc21` (stereo not given), the TGI in the test with A549 NSCLC came to 73.7 µM; with HCT-116 colon, 38.4 µM; with HCT-15 colon it was 76.7 µM; in the test with HT29 colon it was 71.1 µM; in the test on KM12 colon, 37 µM; in the test on LXFL 529 NSCLC it was 47.3 µM. The TGI in the test with NCI-H522 lung is 44.7 µM; in the test on OVCAR-4 ovarian it was greater than 100 µM; in the test with OVCAR-8 ovarian, 45.5 µM; in the test with RPMI-8226 leukemia, greater than 100 µM; with RXF 393 renal, 24.8 µM; in the test on SF-295 CNS, 40.7 µM. Moreover, the TGI in the test on SN12C renal was 85 µM; in the test with SNB-75 CNS, greater than 100 µM; in the test with SW-620 colon it was 54.6 µM.
Turning to `NCCCC(N=Cc1nc(-c2ccccc2)oc1O)C(=O)O` (stereo not given), the TGI in the test on A549 NSCLC, in the test on HCT-116 colon, in the test on HCT-15 colon, with HT29 colon, in the test with LXFL 529 NSCLC and with M14 melanoma was greater than 100 µM throughout. Further, the TGI in the test with NCI-H522 lung, with OVCAR-4 ovarian, in the test on OVCAR-8 ovarian, in the test on RPMI-8226 leukemia, in the test with RXF 393 renal and in the test on SF-295 CNS was greater than 100 µM throughout. For the same compound, the TGI in the test with SK-MEL-5 melanoma, in the test with SN12C renal, with SNB-75 CNS and in the test with SW-620 colon was greater than 100 µM in each case.
`CCOC(=O)C(=O)Nc1c(C)cccc1C(C)(C)C`: the TGI with HCT-116 colon, with HCT-15 colon, in the test with HT29 colon, with KM12 colon, in the test with LXFL 529 NSCLC and in the test on M14 melanoma was greater than 100 µM each time. Moreover, the TGI in the test with NCI-H522 lung, in the test on OVCAR-4 ovarian, in the test on OVCAR-8 ovarian, in the test on RPMI-8226 leukemia, with RXF 393 renal and in the test on SF-295 CNS was greater than 100 µM throughout. Also, the TGI in the test on SK-MEL-5 melanoma, with SN12C renal, in the test with SNB-75 CNS and with SW-620 colon was greater than 100 µM each time.
`C=CC(=O)Nc1ccccc1CC(c1c[nH]c2ccccc12)c1c[nH]c2ccccc12`: the TGI worked out at 56.7 µM with A549 NSCLC; 38.7 µM in the test on HCT-15 colon; 37.5 µM in the test on HT29 colon; 38.7 µM in the test with KM12 colon; 30.6 µM with LXFL 529 NSCLC; 30.3 µM in the test on M14 melanoma. The TGI in the test on NCI-H522 lung is 48.2 µM; in the test with OVCAR-8 ovarian it was 33.6 µM; with RPMI-8226 leukemia, 50.5 µM; with SF-295 CNS, 49.1 µM; in the test with SK-MEL-5 melanoma, 33.4 µM; in the test on SN12C renal, 30.6 µM. In addition, the TGI stood at 28.4 µM in the test on SNB-75 CNS and 39.2 µM in the test on SW-620 colon.
